Values of other authors as cited in patent US20240024159A1, “POSTERIOR CHAMBER PLACEMENT OF SUSTAINED RELEASE IMPLANT” (Allergan, Inc., priority 2020, published 2024).

Tested on: prostaglandin (PG) sensitive receptors

For `CCNC(=O)CCC/C=C\C[C@@H]1[C@@H](/C=C/[C@@H](O)CCc2ccccc2)[C@H](O)C[C@@H]1O` [bimatoprost], the “interaction with prostaglandin (PG) sensitive receptors” value is listed as “no meaningful interaction”.
